Results as given in paper PMC3128788 (Nuclear medicine and biology, 2011).
Marks after values point to notes of the source that are not given here. Values belong to the compound of their own block, whether it stands above or below them.

What was measured:
[1] = system: P-gp expressed in Madin-Darby canine kidney (MDCK)-MDR1 cells; settings: efflux blocked with verapamil; cited from earlier work
[2] = type: in vivo, male Sprague Dawley rats; settings: for Blood %ID/gram, 5 min CycA / Bone %ID/gram, 5 min CycA / Fat %ID/gram, 5 min CycA / Kidney %ID/gram, 5 min CycA / Liver %ID/gram, 5 min CycA / Lung %ID/gram, 5 min CycA / Muscle %ID/gram, 5 min CycA / Total brain %ID/gram, 5 min CycA / Blood %ID/gram, 30 min CycA / Bone %ID/gram, 30 min CycA / Fat %ID/gram, 30 min CycA / Kidney %ID/gram, 30 min CycA / Liver %ID/gram, 30 min CycA / Lung %ID/gram, 30 min CycA / Muscle %ID/gram, 30 min CycA / Total brain %ID/gram, 30 min CycA: CycA […] mg/kg i.v. 30 min before tracer; for Blood %ID/gram, 5 min CycA / Bone %ID/gram, 5 min CycA / Fat %ID/gram, 5 min CycA / Kidney %ID/gram, 5 min CycA / Liver %ID/gram, 5 min CycA / Lung %ID/gram, 5 min CycA / Muscle %ID/gram, 5 min CycA / Total brain %ID/gram, 5 min CycA / Blood %ID/gram, 5 min No Rx / Bone %ID/gram, 5 min No Rx / Fat %ID/gram, 5 min No Rx / Kidney %ID/gram, 5 min No Rx / Liver %ID/gram, 5 min No Rx / Lung %ID/gram, 5 min No Rx / Muscle %ID/gram, 5 min No Rx / Total brain %ID/gram, 5 min No Rx: 5 min post-injection; for Blood %ID/gram, 30 min CycA / Bone %ID/gram, 30 min CycA / Fat %ID/gram, 30 min CycA / Kidney %ID/gram, 30 min CycA / Liver %ID/gram, 30 min CycA / Lung %ID/gram, 30 min CycA / Muscle %ID/gram, 30 min CycA / Total brain %ID/gram, 30 min CycA / Blood %ID/gram, 30 min No Rx / Bone %ID/gram, 30 min No Rx / Fat %ID/gram, 30 min No Rx / Kidney %ID/gram, 30 min No Rx / Liver %ID/gram, 30 min No Rx / Lung %ID/gram, 30 min No Rx / Muscle %ID/gram, 30 min No Rx / Total brain %ID/gram, 30 min No Rx: 30 min post-injection; for Increase in brain uptake after CycA administration at 5 min: 5 min post injection; for Blood %ID/gram, 5 min No Rx / Bone %ID/gram, 5 min No Rx / Fat %ID/gram, 5 min No Rx / Kidney %ID/gram, 5 min No Rx / Liver %ID/gram, 5 min No Rx / Lung %ID/gram, 5 min No Rx / Muscle %ID/gram, 5 min No Rx / Blood %ID/gram, 30 min No Rx / Bone %ID/gram, 30 min No Rx / Fat %ID/gram, 30 min No Rx / Kidney %ID/gram, 30 min No Rx / Liver %ID/gram, 30 min No Rx / Lung %ID/gram, 30 min No Rx / Muscle %ID/gram, 30 min No Rx / Total brain %ID/gram, 30 min No Rx / Total brain %ID/gram, 5 min No Rx: control rats, i.v.; for Bone activity levels from 5 min to 30 min (metabolic defluorination): normal rats; for Blood CycA:No Rx / Bone CycA:No Rx / Fat CycA:No Rx / Kidney CycA:No Rx / Liver CycA:No Rx / Lung CycA:No Rx / Muscle CycA:No Rx / Total brain CycA:No Rx: ratio of tracer uptake in CycA versus control group 30 min post injection
[3] = CycA pretreated versus control rats

Compound: O=C(NC/C=C/CN1CCN(c2cccc(Cl)c2Cl)CC1)c1ccc(-c2ccccn2)cc1 [PG 01037]
Substrate for P-gp [1]: substrate for P-gp

Blood %ID/gram, 5 min CycA [2]: 0.156 ± 0.033 %ID/gram
Bone %ID/gram, 5 min CycA [2]: 0.232 ± 0.015 %ID/gram
Fat %ID/gram, 5 min CycA [2]: 0.062 ± 0.017 %ID/gram
Kidney %ID/gram, 5 min CycA [2]: 1.782 ± 0.242 %ID/gram
Liver %ID/gram, 5 min CycA [2]: 1.790 ± 0.286 %ID/gram
Lung %ID/gram, 5 min CycA [2]: 1.423 ± 0.262 %ID/gram
Muscle %ID/gram, 5 min CycA [2]: 0.158 ± 0.055 %ID/gram
Total brain %ID/gram, 5 min CycA [2]: 0.421 ± 0.115 %ID/gram
Blood %ID/gram, 30 min CycA [2]: 0.178 ± 0.018 %ID/gram
Bone %ID/gram, 30 min CycA [2]: 0.168 ± 0.016 %ID/gram
Fat %ID/gram, 30 min CycA [2]: 0.069 ± 0.011 %ID/gram
Kidney %ID/gram, 30 min CycA [2]: 0.898 ± 0.076 %ID/gram
Liver %ID/gram, 30 min CycA [2]: 1.870 ± 0.184 %ID/gram
Lung %ID/gram, 30 min CycA [2]: 0.563 ± 0.016 %ID/gram
Muscle %ID/gram, 30 min CycA [2]: 0.147 ± 0.006 %ID/gram
Total brain %ID/gram, 30 min CycA [2]: 0.271 ± 0.068 %ID/gram
Increase in brain uptake after CycA administration at 5 min [2, 3]: 6.3 fold
Increase in brain uptake after CycA administration at 30 min ([2]; CycA pretreated versus control rats, 30 min post injection): 2.7 fold
Blood %ID/gram, 5 min No Rx [2]: 0.133 ± 0.018 %ID/gram
Bone %ID/gram, 5 min No Rx [2]: 0.243 ± 0.041 %ID/gram
Fat %ID/gram, 5 min No Rx [2]: 0.084 ± 0.036 %ID/gram
Kidney %ID/gram, 5 min No Rx [2]: 1.582 ± 0.293 %ID/gram
Liver %ID/gram, 5 min No Rx [2]: 2.035 ± 0.578 %ID/gram
Lung %ID/gram, 5 min No Rx [2]: 1.182 ± 0.086 %ID/gram
Muscle %ID/gram, 5 min No Rx [2]: 0.107 ± 0.017 %ID/gram
Blood %ID/gram, 30 min No Rx [2]: 0.167 ± 0.018 %ID/gram
Bone %ID/gram, 30 min No Rx [2]: 0.164 ± 0.018 %ID/gram
Fat %ID/gram, 30 min No Rx [2]: 0.086 ± 0.013 %ID/gram
Kidney %ID/gram, 30 min No Rx [2]: 0.952 ± 0.100 %ID/gram
Liver %ID/gram, 30 min No Rx [2]: 2.169 ± 0.113 %ID/gram
Lung %ID/gram, 30 min No Rx [2]: 0.668 ± 0.057 %ID/gram
Muscle %ID/gram, 30 min No Rx [2]: 0.143 ± 0.011 %ID/gram
Total brain %ID/gram, 30 min No Rx [2]: 0.098 ± 0.012 %ID/gram
Bone activity levels from 5 min to 30 min (metabolic defluorination) [2]: No accumulation
Blood CycA:No Rx [2]: 1.06
Bone CycA:No Rx [2]: 1.02
Fat CycA:No Rx [2]: 0.81
Kidney CycA:No Rx [2]: 0.94
Liver CycA:No Rx [2]: 0.86 ^e
Lung CycA:No Rx [2]: 0.84 ^d
Muscle CycA:No Rx [2]: 1.03
Total brain CycA:No Rx [2]: 2.77 ^f
Compound: COc1ccccc1N1CCN(CCCCNC(=O)c2ccc(CC[18F])cc2)CC1 [[^18F]7, 4-(2-[^18F]-fluoroethyl)-N-(4-(4-(2-methoxyphenyl)piperazin-1-yl)butyl)benzamide]

Blood %ID/gram, 5 min CycA [2]: 0.109 ± 0.009 %ID/gram
Bone %ID/gram, 5 min CycA [2]: 0.288 ± 0.008 %ID/gram
Fat %ID/gram, 5 min CycA [2]: 0.116 ± 0.004 %ID/gram
Kidney %ID/gram, 5 min CycA [2]: 2.235 ± 0.175 %ID/gram
Liver %ID/gram, 5 min CycA [2]: 1.770 ± 0.584 %ID/gram
Lung %ID/gram, 5 min CycA [2]: 1.893 ± 0.158 %ID/gram
Muscle %ID/gram, 5 min CycA [2]: 0.184 ± 0.014 %ID/gram
Total brain %ID/gram, 5 min CycA [2]: 0.895 ± 0.063 %ID/gram
Blood %ID/gram, 30 min CycA [2]: 0.062 ± 0.018 %ID/gram
Bone %ID/gram, 30 min CycA [2]: 0.599 ± 0.152 %ID/gram
Fat %ID/gram, 30 min CycA [2]: 0.115 ± 0.030 %ID/gram
Kidney %ID/gram, 30 min CycA [2]: 2.548 ± 0.490 %ID/gram
Liver %ID/gram, 30 min CycA [2]: 2.431 ± 0.365 %ID/gram
Lung %ID/gram, 30 min CycA [2]: 1.154 ± 0.102 %ID/gram
Muscle %ID/gram, 30 min CycA [2]: 0.154 ± 0.038 %ID/gram
Total brain %ID/gram, 30 min CycA [2]: 0.970 ± 0.077 %ID/gram
Increase in brain uptake after CycA administration at 5 min [2, 3]: 5.0 fold
Blood %ID/gram, 5 min No Rx [2]: 0.079 ± 0.006 %ID/gram
Bone %ID/gram, 5 min No Rx [2]: 0.490 ± 0.033 %ID/gram
Fat %ID/gram, 5 min No Rx [2]: 0.101 ± 0.046 %ID/gram
Kidney %ID/gram, 5 min No Rx [2]: 2.939 ± 0.544 %ID/gram
Liver %ID/gram, 5 min No Rx [2]: 2.124 ± 0.113 %ID/gram
Lung %ID/gram, 5 min No Rx [2]: 2.432 ± 0.211 %ID/gram
Muscle %ID/gram, 5 min No Rx [2]: 0.099 ± 0.007 %ID/gram
Total brain %ID/gram, 5 min No Rx [2]: 0.178 ± 0.030 %ID/gram
Blood %ID/gram, 30 min No Rx [2]: 0.046 ± 0.008 %ID/gram
Bone %ID/gram, 30 min No Rx [2]: 0.882 ± 0.153 %ID/gram
Fat %ID/gram, 30 min No Rx [2]: 0.095 ± 0.017 %ID/gram
Kidney %ID/gram, 30 min No Rx [2]: 2.710 ± 0.235 %ID/gram
Liver %ID/gram, 30 min No Rx [2]: 2.134 ± 0.313 %ID/gram
Lung %ID/gram, 30 min No Rx [2]: 1.553 ± 0.179 %ID/gram
Muscle %ID/gram, 30 min No Rx [2]: 0.111 ± 0.006 %ID/gram
Total brain %ID/gram, 30 min No Rx [2]: 0.180 ± 0.006 %ID/gram
Bone activity levels from 5 min to 30 min (metabolic defluorination) [2]: two-fold increase
Blood CycA:No Rx [2]: 1.35
Bone CycA:No Rx [2]: 0.68
Fat CycA:No Rx [2]: 1.20
Kidney CycA:No Rx [2]: 0.94
Liver CycA:No Rx [2]: 1.14
Lung CycA:No Rx [2]: 0.74
Muscle CycA:No Rx [2]: 1.38
Total brain CycA:No Rx [2]: 5.38 ^g
Compound: CN(C)c1ccc(C(=O)NCCCCN2CCN(c3ccccc3OCC[18F])CC2)cc1 [[^18F]8, 4-(dimethylamino)-N-(4-(4-(2-(2-[^18F]fluoroethoxy)phenyl)piperazin-1-yl)butyl)benzamide]

Blood %ID/gram, 5 min CycA [2]: 0.098 ± 0.009 %ID/gram
Bone %ID/gram, 5 min CycA [2]: 0.162 ± 0.030 g %ID/gram
Fat %ID/gram, 5 min CycA [2]: 0.046 ± 0.028 %ID/gram
Kidney %ID/gram, 5 min CycA [2]: 1.913 ± 0.037 %ID/gram
Liver %ID/gram, 5 min CycA [2]: 1.478 ± 0.336 %ID/gram
Lung %ID/gram, 5 min CycA [2]: 3.356 ± 0.261 %ID/gram
Muscle %ID/gram, 5 min CycA [2]: 0.097 ± 0.0417 %ID/gram
Total brain %ID/gram, 5 min CycA [2]: 0.725 ± 0.022 %ID/gram
Blood %ID/gram, 30 min CycA [2]: 0.109 ± 0.019 %ID/gram
Bone %ID/gram, 30 min CycA [2]: 0.143 ± 0.016 %ID/gram
Fat %ID/gram, 30 min CycA [2]: 0.093 ± 0.017 %ID/gram
Kidney %ID/gram, 30 min CycA [2]: 1.397 ± 0.260 %ID/gram
Liver %ID/gram, 30 min CycA [2]: 1.039 ± 0.124 %ID/gram
Lung %ID/gram, 30 min CycA [2]: 1.063 ± 0.182 %ID/gram
Muscle %ID/gram, 30 min CycA [2]: 0.108 ± 0.014 %ID/gram
Total brain %ID/gram, 30 min CycA [2]: 0.504 ± 0.023 %ID/gram
Blood %ID/gram, 5 min No Rx [2]: 0.082 ± 0.027 %ID/gram
Bone %ID/gram, 5 min No Rx [2]: 0.253 ± 0.001 %ID/gram
Fat %ID/gram, 5 min No Rx [2]: 0.028 ± 0.003 %ID/gram
Kidney %ID/gram, 5 min No Rx [2]: 2.485 ± 0.608 %ID/gram
Liver %ID/gram, 5 min No Rx [2]: 1.430 ± 0.221 %ID/gram
Lung %ID/gram, 5 min No Rx [2]: 4.026 ± 1.177 %ID/gram
Muscle %ID/gram, 5 min No Rx [2]: 0.083 ± 0.009 %ID/gram
Total brain %ID/gram, 5 min No Rx [2]: 0.118 ± 0.001 %ID/gram
Blood %ID/gram, 30 min No Rx [2]: 0.104 ± 0.010 %ID/gram
Bone %ID/gram, 30 min No Rx [2]: 0.220 ± 0.0494 %ID/gram
Fat %ID/gram, 30 min No Rx [2]: 0.091 ± 0.0029 %ID/gram
Kidney %ID/gram, 30 min No Rx [2]: 1.363 ± 0.0359 %ID/gram
Liver %ID/gram, 30 min No Rx [2]: 1.162 ± 0.1400 %ID/gram
Lung %ID/gram, 30 min No Rx [2]: 1.313 ± 0.3574 %ID/gram
Muscle %ID/gram, 30 min No Rx [2]: 0.083 ± 0.0139 %ID/gram
Total brain %ID/gram, 30 min No Rx [2]: 0.095 ± 0.0208 %ID/gram
Bone activity levels from 5 min to 30 min (metabolic defluorination) [2]: No accumulation
Blood CycA:No Rx [2]: 1.05
Bone CycA:No Rx [2]: 0.65
Fat CycA:No Rx [2]: 1.02
Kidney CycA:No Rx [2]: 1.03
Liver CycA:No Rx [2]: 0.89
Lung CycA:No Rx [2]: 0.81
Muscle CycA:No Rx [2]: 1.24
Total brain CycA:No Rx [2]: 5.33 ^h
Compound: O=C(NCCCCN1CCN(c2ccccc2OCC[18F])CC1)c1ccc(-c2ccsc2)cc1 [[^18F]9, N-(4-(4-(2-(2-[^18F]fluoroethoxy)phenyl)piperazin-1-yl)butyl)-4-(thiophen-3-yl)benzamide]
